Data on one molecule can be found in US20060253078A1, “Method of treating skin disorders with stratum corneum piercing device” (priority 2005, published 2006).

The nature of the data set: In vitro electrode-salicylic acid compatibility (color change of test solution). The class given is physicochemical. The following applies: for Solution color change: 1.5% salicylic acid in 50% ethanol/50% water, cathode Platinum. The method, then: The following experiment was conducted to determine the compatibility of electrodes with salicylic acid. A pair of test electrodes was immersed in 5 ml of 1.5% salicylic acid solution (solvent 50% ethanol/50% water). A pre-determined voltage was applied to the electrodes (by connecting the electrodes to a battery or batteries) for certain length of time as indicated in Table 3. Observations were made on color change of the test solution.

For the molecule `O=C(O)c1ccccc1O` [salicylic acid], the Solution color change result (anode Platinum, 3 V, 10 min) is listed as “Colorless → yellow”; the Solution color change result (anode Platinum, 9 V, 10 min) was “Colorless → brown”; the Solution color change result (anode Zinc, 1.5 V, 10 min) is given as “No color change”; the Solution color change entry (anode Zinc, 3 V, 10 min) is on record as “No color change”; the Solution color change result (anode Zinc, 9 V, 30 min) is on record as “No color change”. Besides, the “Discoloration of the solution (compatibility with salicylic acid)” value by setting is: (platinum anode) “resulted in discoloration”; (zinc anode, during passage of electric current) “no discoloration”.
